# Marks after values point to notes of the source that are not given here.
# Tested on: RAW264.7 cells
# Assay: MTT assay for cell viability
# Format: cell-based, mouse
# Conditions: LPS 1 μg/mL
# Procedure: The RAW 264.7 mouse macrophage cell line was obtained from the China Cell Line Bank (Beijing, China). Cells were cultured in complete medium (DMEM supplemented with 10% heat-inactivated FBS, 3 mM glutamine and antibiotics (100 U/mL penicillin and 100 U/mL streptomycin)) at 37 °C in a humidified incubator containing 5% CO2 and 95% air. […]
# Cell viability studies induced by synthesised compounds were evaluated by 3-(4,5-dimethylthiazol-2-yl)-2,5-diphenyltetrazolium bromide (MTT) assay. RAW264.7 macrophages were seeded in 96-well plates at a density of 5 × 10^5 cells/mL in complete medium and incubated for 24 h (100 µL/well). Then the cells were treated with different concentrations of synthesised compounds for 24 h. 150 µL MTT (5 g/L in PBS) was added to each well and the cells were further incubated for 4 h. The supernatant was removed and the cells were lysed with 150 µL/well DMSO. The optical density was measured at 570 nm on a microplate reader (Thermo Scientific, MA, USA).
substance,measurement,value
"lipopolysaccharide [LPS, reference compound]",Cell viability (%),98.60 ± 2.12^a %

# From PMC6853232, “Discovery and evaluation of novel synthetic 5-alkyl-4-oxo-4,5-dihydro-[1,2,4]triazolo[4,3-a]quinoxaline-1-carbox-amide derivatives as anti-inflammatory agents” (Journal of Enzyme Inhibition and Medicinal Chemistry, 2019)
